The nature of assay [1]: The opioid receptor affinity(Ki) was evaluated by competition with [3H]DSLET (delta 2) on guinea pig brain membranes.
The nature of assay [2]: The opioid receptor affinity(Ki) was evaluated by competition with [3H]-DPDPE (delta 1) on guinea pig brain membranes.

The record followed here is BindingDB's records for doi:10.1021/jm00003a002 (University of Minnesota, 1995).

The term Ki denotes the dissociation constant of the complex between target and ligand, obtained from inhibition or displacement. A lower Ki goes with higher affinity.

Take `O=C(O)C[C@@H](NC(=O)c1cccc2c3c([nH]c12)[C@@H]1Oc2c(O)ccc4c2C12CCN(CC1CC1)C(C4)[C@]2(O)C3)C(=O)O` (stereo partly drawn) [2-[22-cyclopropylmethyl-2,16-dihydroxy-(2S,13R)-14-oxa-11,22-diazaheptacyclo[13.9.1.01,13.02,21.04,12.05,10.019,25]pentacosa-4(12),5(10),6,8,15(25),16,18-heptaen-9-ylcarboxamido]-(2R)-butanedioic acid]: the Ki in assay [1] came to 0.41 nM; in assay [2], 0.14 nM.
Consider `N=C(N)NCCC[C@@H](NC(=O)c1cccc2c3c([nH]c12)[C@@H]1Oc2c(O)ccc4c2C12CCN(CC1CC1)C(C4)[C@]2(O)C3)C(=O)O` (stereo partly drawn) [5-amino(imino)methylamino-2-[22-cyclopropylmethyl-2,16-dihydroxy-(2S,13R)-14-oxa-11,22-diazaheptacyclo[13.9.1.01,13.02,21.04,12.05,10.019,25]pentacosa-4(12),5(10),6,8,15(25),16,18-heptaen-9-ylcarboxamido]-(2R)-pentanoic acid], for which the Ki turned out to be 0.083 nM in assay [1] and 0.16 nM in assay [2].
Consider `NCCC[C@@H](NC(=O)c1cccc2c3c([nH]c12)[C@@H]1Oc2c(O)ccc4c2C12CCN(CC1CC1)C(C4)[C@]2(O)C3)C(=O)O` (stereo partly drawn) [5-amino-2-[22-cyclopropylmethyl-2,16-dihydroxy-(2S,13R)-14-oxa-11,22-diazaheptacyclo[13.9.1.01,13.02,21.04,12.05,10.019,25]pentacosa-4(12),5(10),6,8,15(25),16,18-heptaen-9-ylcarboxamido]-(2R)-pentanoic acid], for which the Ki was 0.015 nM in assay [1] and 0.18 nM in assay [2].
As for `NCCCC[C@@H](NC(=O)c1cccc2c3c([nH]c12)[C@@H]1Oc2c(O)ccc4c2C12CCN(CC1CC1)C(C4)[C@]2(O)C3)C(=O)O` (stereo partly drawn) [6-amino-2-[22-cyclopropylmethyl-2,16-dihydroxy-(2S,13R)-14-oxa-11,22-diazaheptacyclo[13.9.1.01,13.02,21.04,12.05,10.019,25]pentacosa-4(12),5(10),6,8,15(25),16,18-heptaen-9-ylcarboxamido]-(2R)-hexanoic acid], the inhibitory constant (Ki) came out at 0.75 nM in assay [1] and 0.3 nM in assay [2].
For `O=C(O)c1cccc2c3c([nH]c12)[C@@H]1Oc2c(O)ccc4c2C12CCN(CC1CC1)C(C4)[C@]2(O)C3` (stereo partly drawn) [22-cyclopropylmethyl-2,16-dihydroxy-(2S,13R)-14-oxa-11,22-diazaheptacyclo[13.9.1.01,13.02,21.04,12.05,10.019,25]pentacosa-4(12),5(10),6,8,15(25),16,18-heptaene-9-carboxylic acid], in that order: 0.016 nM and 0.013 nM.
Compound `O=C(O)CNC(=O)c1cccc2c3c([nH]c12)[C@@H]1Oc2c(O)ccc4c2C12CCN(CC1CC1)C(C4)[C@]2(O)C3` (stereo partly drawn) [32+/-82-[22-cyclopropylmethyl-2,16-dihydroxy-(2S,13R)-14-oxa-11,22-diazaheptacyclo[13.9.1.01,13.02,21.04,12.05,10.019,25]pentacosa-4(12),5(10),6,8,15(25),16,18-heptaen-9-ylcarboxamido]acetic acid] came in with a Ki in assay [2] of 0.005 nM.
